Reference: patent US20230321100A1, “CD73 INHIBITOR AND APPLICATION THEREOF IN MEDICINE” (BETTA PHARMACEUTICALS CO., LTD, priority 2020, published 2023)

biological target: T1, CD73 (Calu-6 cells) (Homo sapiens, UniProt P21589); assay: Enzymatic activity detection at the cellular level (Calu-6 cells, AMP substrate, Cell-titer Glo luminescence); format: cell-based; settings: enzymatic IC50 at the Calu-6 cell level, 30 min pre-incubation, 120 min at 37° C.
T1 construct: endogenous in cells; host or cells: Calu-6 cells
T1 sequence (P21589 27-549): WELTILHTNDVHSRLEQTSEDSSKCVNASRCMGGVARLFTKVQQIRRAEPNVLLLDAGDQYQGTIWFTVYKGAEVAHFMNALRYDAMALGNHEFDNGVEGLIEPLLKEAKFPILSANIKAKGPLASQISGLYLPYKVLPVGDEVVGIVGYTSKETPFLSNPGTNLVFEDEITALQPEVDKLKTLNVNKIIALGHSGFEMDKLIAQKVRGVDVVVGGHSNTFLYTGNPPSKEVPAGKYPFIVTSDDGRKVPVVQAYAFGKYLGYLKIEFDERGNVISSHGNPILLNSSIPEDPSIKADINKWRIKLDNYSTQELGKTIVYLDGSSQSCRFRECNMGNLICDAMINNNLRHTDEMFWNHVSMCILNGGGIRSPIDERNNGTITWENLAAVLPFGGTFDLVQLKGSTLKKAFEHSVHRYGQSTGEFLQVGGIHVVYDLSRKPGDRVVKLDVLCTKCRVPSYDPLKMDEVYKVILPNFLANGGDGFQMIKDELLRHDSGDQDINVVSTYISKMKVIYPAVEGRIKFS
Procedure: The Calu-6 cells were digested and re-suspended using TM buffer (25 mM Tris, 5 mM MgCl2, pH 7.5). Calu-6 cell suspension was seeded into 96 well cell culture plate, and the number of cells per well was 2.5×10^4, adding volume of 100 μL/well. Compound solution with gradient concentration was prepared by TM buffer, and 50 μL DMSO solution with different concentration was added into each pore cell. […] Pre-incubated in a shaker at 37° C. for 30 min. Each well was added with 50 μL 800 μM AMP solution. The shaker at 37° C. for 120 min was continued to incubate, then the 96-well plates were centrifuged and 50 μL supernatant was transferred to the new 96-well plates. […] The luminescence value was read by the multi-function enzymatic reader and converted into the inhibition percentage: Inhibition percentage=(1−reading/Max)*100. The “maximum value” was DMSO control. IC50 values were obtained by curve fitting with GraphPad Prism software.

IC50 [nM]	SMILES
21.6	C=Cc1nnc(-c2c[nH]c(=O)[nH]c2=O)cc1[C@H]1C[C@@H]1CC [Compound 1, 5-(5-((1S,2S)-2-ethylcyclopropyl)-6-vinylpyridazin-3-yl)pyrimidine-2,4(1H,3H)-dione]
329	C=C(C)c1nnc(-c2c[nH]c(=O)[nH]c2=O)cc1[C@H]1C[C@@H]1CC [Compound 2, 5-(5-((1S,2S)-2-ethylcyclopropyl)-6-(prop-1-en-2-yl)pyridazin-3-yl)pyrimidine-2,4(1H,3H)-dione]
721	CC[C@H]1C[C@@H]1c1cc(-c2c[nH]c(=O)[nH]c2=O)nnc1C1CC1 [Compound 3, 5-(6-cyclopropyl-5-((1S,2S)-2-ethylcyclopropyl)pyridazin-3-yl)pyrimidine-2,4(1H,3H)-dione]
22.6	C=C1CC(c2cc(-c3c[nH]c(=O)[nH]c3=O)nnc2Cl)C1 [Compound 4, 5-(6-chloro-5-(3-methylenecyclobutyl)pyridazin-3-yl)pyrimidine-2,4(1H,3H)-dione]
50.7	C=CC1CC1c1cc(-c2c[nH]c(=O)[nH]c2=O)nnc1C (stereo not shown) [Compound 6, 5-(6-methyl-5-(2-vinylcyclopropyl)pyridazin-3-yl)pyrimidine-2,4(1H,3H)-dione]
21	C=C[C@H]1C[C@@H]1c1cc(-c2c[nH]c(=O)[nH]c2=O)nnc1C [Compound 7, 5-(6-methyl-5-((1S,2R)-2-vinylcyclopropyl)pyridazin-3-yl)pyrimidine-2,4(1H,3H)-dione]
92.7	C/C=C/[C@H]1C[C@@H]1c1cc(-c2c[nH]c(=O)[nH]c2=O)nnc1C [Compound 8, 5-(6-methyl-5-((1S,2R)-2-((E)-prop-1-en-1-yl)cyclopropyl)pyridazin-3-yl)pyrimidine-2,4(1H,3H)-dione]
200	Cc1nnc(-c2c[nH]c(=O)[nH]c2=O)cc1[C@H]1C[C@@H]1/C=C/C1CC1 [Compound 9, 5-(5-((1S,2R)-2-((E)-2-cyclopropylvinyl)cyclopropyl)-6-methylpyridazin-3-yl)pyrimidine-2,4(1H,3H)-dione]
31	Cc1nnc(-c2c[nH]c(=O)[nH]c2=O)cc1[C@H]1C[C@@H]1/C=C/C#N [Compound 10, (E)-3-((1R,2S)-2-(6-(2,4-dioxo-1,2,3,4-tetrahydropyrimidin-5-yl)-3-methylpyridazin-4-yl)cyclopropyl)acrylonitrile]
46	Cc1nnc(-c2c[nH]c(=O)[nH]c2=O)cc1[C@H]1C[C@@H]1C=C(F)F [Compound 11, 5-(5-((1S,2S)-2-(2,2-difluorovinyl)cyclopropyl)-6-methylpyridazin-3-yl)pyrimidine-2,4(1H,3H)-dione]
2.3	Cc1nnc(-c2c[nH]c(=O)[nH]c2=O)cc1[C@H]1C[C@@H]1/C=C/c1ccccc1 [Compound 16, 5-(6-methyl-5-((1S,2R)-2-((E)-styryl)cyclopropyl)pyridazin-3-yl)pyrimidine-2,4(1H,3H)-dione]
2.3	N#Cc1ccc(/C=C/[C@H]2C[C@@H]2c2cc(-c3c[nH]c(=O)[nH]c3=O)nnc2Cl)cc1 [Compound 17, 4-((E)-2-((1R,2S)-2-(3-chloro-6-(2,4-dioxo-1,2,3,4-tetrahydropyrimidin-5-yl)pyridazin-4-yl)cyclopropyl)vinyl)benzonitrile]
5.6	O=c1[nH]cc(-c2cc([C@H]3C[C@@H]3C#Cc3ccccc3)c(Cl)nn2)c(=O)[nH]1 [Compound 18, 5-(6-chloro-5-((1S,2S)-2-(phenylethynyl)cyclopropyl)pyridazin-3-yl)pyrimidine-2,4(1H,3H)-dione]
2.99	N#Cc1cccc(C#C[C@H]2C[C@@H]2c2cc(-c3c[nH]c(=O)[nH]c3=O)nnc2Cl)c1 [Compound 19, 3-(((1S,2S)-2-(3-chloro-6-(2,4-dioxo-1,2,3,4-tetrahydropyrimidin-5-yl)pyridazin-4-yl)cvclopropyl)ethynyl)benzonitrile]
1.2	COc1nnc(-c2c[nH]c(=O)[nH]c2=O)cc1[C@H]1C[C@@H]1/C=C/c1ccccc1 [Compound 20, 5-(6-methoxy-S-((1S,2R)-2-((E)-styryl)cyclopropyl)pyridazin-3-yl)pyrimidine-2,4(1H,3H)-dione]
5.5	COc1nnc(-c2c[nH]c(=O)[nH]c2=O)cc1[C@H]1C[C@@H]1C#Cc1ccccc1 [Compound 21, 5-(6-methoxy-S-((1S,2S)-2-(phenylethynyl)cyclopropyl)pyridazin-3-yl)pyrimidine-2,4(1H,3H)-dione]
22.7	Cc1nnc(-c2c[nH]c(=O)[nH]c2=O)cc1C1CC1c1ccccc1 (stereo not shown) [Compound 22, 5-(6-methyl-5-(2-phenylcyclopropyl)pyridazin-3-yl)pyrimidine-2,4(1H,3H)-dione]
1.4	O=c1[nH]cc(-c2cc(C3CC3c3ccccc3)c(Cl)nn2)c(=O)[nH]1 (stereo not shown) [Compound 23, 5-(6-chloro-5-(2-phenylcyclopropyl)pyridazin-3-yl)pyrimidine-2,4(1H,3H)-dione]
5.2	Cc1ccc(C2CC2c2cc(-c3c[nH]c(=O)[nH]c3=O)nnc2Cl)cc1 (stereo not drawn) [Compound 24, 5-(6-chloro-S-(2-(p-tolyl)cyclopropyl)pyridazin-3-yl)pyrimidine-2,4(1H,3H)-dione]
1.8	N#Cc1ccc(C2CC2c2cc(-c3c[nH]c(=O)[nH]c3=O)nnc2Cl)cc1 (stereo not shown) [Compound 25, 4-(2-(3-chloro-6-(2,4-dioxo-1,2,3,4-tetrahydropyrimidin-5-yl)pyridazin-4-yl)cyclopropyl)benzonitrile]
8.7	N#Cc1cccc(C2CC2c2cc(-c3c[nH]c(=O)[nH]c3=O)nnc2Cl)c1 (stereo not shown) [Compound 26, 3-(2-(3-chloro-6-(2,4-dioxo-1,2,3,4-tetrahydropyrimidin-5-yl)pyridazin-4-yl)cyclopropyl)benzonitrile]
1.8	O=c1[nH]cc(-c2cc(C3CC3c3ccc(F)cc3)c(Cl)nn2)c(=O)[nH]1 (stereo not shown) [Compound 27, 5-(6-chloro-5-(2-(4-fluorophenyl)cyclopropyl)pyridazin-3-yl)pyrimidine-2,4(1H,3H)-dione]
2.7	O=c1[nH]cc(-c2cc(C3CC3c3ccc(Cl)cc3)c(Cl)nn2)c(=O)[nH]1 (stereo not shown) [Compound 28, 5-(6-chloro-5-(2-(4-chlorophenyl)cyclopropyl)pyridazin-3-yl)pyrimidine-2,4(1H,3H)-dione]
4.1	COc1cccc(C2CC2c2cc(-c3c[nH]c(=O)[nH]c3=O)nnc2Cl)c1 (stereo not shown) [Compound 29, 5-(6-chloro-5-(2-(3-methoxyphenyl)cyclopropyl)pyridazin-3-yl)pyrimidine-2,4(1H,3H)-dione]
60	O=c1[nH]cc(-c2cc(C3CC3c3cccc4ccccc34)c(Cl)nn2)c(=O)[nH]1 (stereo not drawn) [Compound 30, 5-(6-chloro-S-(2-(naphthalen-1yl)cyclopropyl)pyridazin-3-yl)pyrimidine-2,4(1H,3H)-dione]
4.2	COc1nnc(-c2c[nH]c(=O)[nH]c2=O)cc1C1CC1c1ccccc1 (stereo not shown) [Compound 31, 5-(6-methoxy-5-(2-phenylcyclopropyl)pyridazin-3-yl)pyrimidine-2,4(1H,3H)-dione]
5.4	COc1nnc(-c2c[nH]c(=O)[nH]c2=O)cc1C1CC1c1ccc(F)cc1 (stereo not shown) [Compound 32, 5-(5-(2-(4-fluorophenyl)cyclopropyl)-6-methoxypyridazin-3-yl)pyrimidine-2,4(1H,3H)-dione]
3.9	COc1nnc(-c2c[nH]c(=O)[nH]c2=O)cc1C1CC1c1ccc(Cl)cc1 (stereo not shown) [Compound 33, 5-(5-(2-(4-chlorophenyl)cyclopropyl)-6-methoxypyridazin-3-yl)pyrimidine-2,4(1H,3H)-dione]
